# Results as given in the supplement of paper PMC10307832.
# Experiments:
# Assay in all cases: relative viability (nuclei count vs DMSO), 5 days (fraction); higher = more cells survive
# BAM7 + Vorinostat = compound: CCOC1=CC=CC=C1N=NC2=C(NN(C2=O)C3=NC(=CS3)C4=CC=CC=C4)C [BAM7] + O=C(CCCCCCC(=O)Nc1ccccc1)NO [Vorinostat] (partner 1 µM)
# Summary of the method: (§1)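 Relative viability equals treated-well nuclei counts divided by vehicle-well nuclei counts. Counts came from 4× images of lung cancer cell lines grown in 1536-well plates for 5 days after pin-tool dosing on the day after seeding. Dosing used one drug alone or a fixed anchor-drug dose plus five library-drug doses (not always all listed) in √10 steps, and values are medians of duplicate plates.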
# [1] = compound: CCn1c(-c2nonc2N)nc2c(C#CC(C)(C)O)ncc(OC[C@H]3CCCNC3)c21 + CCNC(=O)c1noc(-c2cc(C(C)C)c(O)cc2O)c1-c1ccc(CN2CCOCC2)cc1 [Luminespib] (partner 0.01 µM)
# Summary of the method: as §1
# [2] = compound: CCn1c(-c2nonc2N)nc2c(C#CC(C)(C)O)ncc(OC[C@H]3CCCNC3)c21 + O=C(c1cc(Cc2n[nH]c(=O)c3ccccc23)ccc1F)N1CCN(C(=O)C2CC2)CC1 [Olaparib] (partner 8 µM)
# Summary of the method: as §1
# [3] = compound: CCn1c(-c2nonc2N)nc2c(C#CC(C)(C)O)ncc(OC[C@H]3CCCNC3)c21 + C[C@]1(O)C[C@@H](c2nc(-c3ccc4ccc(-c5ccccc5)nc4c3)c3c(N)nccn32)C1 [Linsitinib] (partner 1 µM)
# Summary of the method: as §1
Cell Line,relative viability (BAM7 + Vorinostat; first compound 0.5 µM),relative viability (BAM7 + Vorinostat; first compound 5 µM),relative viability (BAM7 + Vorinostat; first compound 15.81 µM),relative viability (BAM7 + Vorinostat; first compound 50 µM),relative viability ([1]; first compound 0.01 µM),relative viability ([1]; first compound 0.03162 µM),relative viability ([1]; first compound 0.1 µM),relative viability ([1]; first compound 0.3162 µM),relative viability ([1]; first compound 1 µM),relative viability ([2]; first compound 0.01 µM),relative viability ([2]; first compound 0.03162 µM),relative viability ([2]; first compound 0.1 µM),relative viability ([2]; first compound 0.3162 µM),relative viability ([2]; first compound 1 µM),relative viability ([3]; first compound 0.01 µM),relative viability ([3]; first compound 0.03162 µM),relative viability ([3]; first compound 0.1 µM),relative viability ([3]; first compound 0.3162 µM),relative viability ([3]; first compound 1 µM)
NCI-H522,0.911,0.851,0.963,0.977,0.929,1.19,1.14,0.604,1.2,0.622,0.779,0.724,0.628,0.581,–,–,–,–,–
HCC-15,0.703,0.729,0.605,0.667,0.291,0.26,0.468,0.345,0.268,0.691,0.735,0.803,0.672,0.628,0.798,0.932,0.856,0.816,0.828
A-427,0.829,0.876,0.834,0.852,0.944,1.03,0.77,0.867,0.946,0.737,0.203,0.75,0.683,0.709,1.13,1.05,1.15,1.1,1.13
NCI-H2228,0.448,0.586,0.552,0.59,0.0991,0.159,0.145,0.113,0.123,0.701,0.895,0.847,0.541,0.55,0.682,0.65,0.645,0.585,0.475
NCI-H1734,0.841,0.903,0.812,0.832,0.189,0.194,0.177,0.145,0.219,0.625,0.573,0.575,0.555,0.618,0.872,0.879,0.782,0.817,0.884
HCC-366,0.301,0.28,0.356,0.344,–,–,–,–,–,0.421,0.366,0.359,0.321,0.354,0.598,0.761,0.498,0.522,0.668
NCI-H1623,–,–,–,–,0.443,0.639,0.486,0.425,0.472,–,–,–,–,–,–,–,–,–,–
Calu-6,–,–,–,–,–,–,–,–,–,0.546,0.589,0.605,0.558,0.644,0.88,1.06,0.842,0.952,0.935
NCI-H1650,0.605,0.449,0.428,0.571,0.187,0.202,0.182,0.199,0.206,0.782,0.837,0.893,0.761,0.738,–,–,–,–,–
NCI-H2170,0.842,0.731,0.651,0.601,0.779,0.785,0.572,0.731,0.744,0.654,0.567,0.645,0.559,0.586,–,–,–,–,–
